US11661426B2, “Imidazole-containing inhibitors of ALK2 kinase” (BioCryst Pharmaceuticals, Inc., priority 2017, dated 2023)

Target: ALK2 (Homo sapiens (Human), UniProt Q04771)
Assay: ALK2 inhibition, LanthaScreen Eu Kinase Binding Assay (ThermoFisher Scientific / Life Technologies)
Conditions: read-out: Measured Ki (IC50) Value for Compounds: IC50
Method: Biochemical assays to measure the inhibitory effects of the compounds were performed by ThermoFisher Scientific (Life Technologies). ALK2 inhibition was tested using LanthaScreen™ Eu Kinase Binding Assay screening protocol.

Sequence of ALK2 (Q04771 21-509): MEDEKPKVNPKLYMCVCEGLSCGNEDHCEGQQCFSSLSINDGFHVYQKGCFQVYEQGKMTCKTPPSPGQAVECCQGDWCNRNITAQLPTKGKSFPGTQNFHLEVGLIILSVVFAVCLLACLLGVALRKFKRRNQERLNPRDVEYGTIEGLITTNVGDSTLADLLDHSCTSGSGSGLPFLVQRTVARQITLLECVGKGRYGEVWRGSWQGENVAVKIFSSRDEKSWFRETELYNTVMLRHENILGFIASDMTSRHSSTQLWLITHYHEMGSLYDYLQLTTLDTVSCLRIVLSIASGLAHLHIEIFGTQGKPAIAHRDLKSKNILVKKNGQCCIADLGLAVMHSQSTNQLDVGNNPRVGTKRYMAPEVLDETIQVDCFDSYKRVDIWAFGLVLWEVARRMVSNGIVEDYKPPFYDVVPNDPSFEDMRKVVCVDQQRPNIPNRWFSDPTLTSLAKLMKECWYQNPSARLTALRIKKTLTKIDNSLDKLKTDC

**Q.** With OC[C@@H]1CCCN1c1nc(Nc2cn(-c3cnc4ccccc4c3)cn2)c2cccn2n1 [Compound 38c, (S)-(1-(4-((1-(quinolin-3-yl)-1H-imidazol-4-yl)amino)pyrrolo[2,1-f][1,2,4]triazin-2-yl)pyrrolidin-2-yl)methanol] as the compound, how does the IC50 read?
**A.** < 100 nM

**Q.** How did the IC50 turn out when OC[C@@H]1CCCN1c1nc(Nc2cn(-c3cccnc3)cn2)c2cccn2n1 [Compound 39c, (S)-(1-(4-((1-(pyridin-3-yl)-1H-imidazol-4-yl)amino)pyrrolo[2,1-f][1,2,4]triazin-2-yl)pyrrolidin-2-yl)methanol] was run?
**A.** < 100 nM

**Q.** Which IC50 does the source give for c1ccc(C2CCCN2c2nc(Nc3cn(-c4ccccc4)cn3)c3occc3n2)cc1 (stereo not shown) [Compound 40a, N-(1-phenyl-1H-imidazol-4-yl)-2-(2-phenylpyrrolidin-1-yl)furo[3,2-d]pyrimidin-4-amine] here?
**A.** < 100 nM

**Q.** For Cc1csc2c(Nc3cn(-c4ccccc4)cn3)nc(N3CCC[C@H]3CO)nc12 [Compound 41c, (S)-(1-(7-methyl-4-((1-phenyl-1H-imidazol-4-yl)amino)thieno[3,2-d]pyrimidin-2-yl)pyrrolidin-2-yl)methanol], which IC50 is on record?
**A.** < 100 nM

**Q.** With Cc1cc2nc(N3CCC[C@H]3CO)nc(Nc3cn(-c4ccc(F)cc4)cn3)c2s1 [Compound 42b, (S)-(1-(4-((1-(4-fluorophenyl)-1H-imidazol-4-yl)amino)-6-methylthieno[3,2-d]pyrimidin-2-yl)pyrrolidin-2-yl)methanol] as the compound, how does the IC50 read?
**A.** < 100 nM

**Q.** Which IC50 does the source give for OC[C@@H]1CCCN1c1nc(Nc2cn(C3CCC3)cn2)c2cccn2n1 [Compound 43a, (S)-(1-(4-((1-cyclobutyl-1H-imidazol-4-yl)amino)pyrrolo[2,1-f][1,2,4]triazin-2-yl)pyrrolidin-2-yl)methanol] here?
**A.** < 100 nM

**Q.** Which IC50 does the source give for OC[C@@H]1CCCN1c1nc(Nc2cn(-c3cccc(F)c3)cn2)c2cccn2n1 [Compound 44c, (S)-(1-(4-((1-(3-fluorophenyl)-1H-imidazol-4-yl)amino)pyrrolo[2,1-f][1,2,4]triazin-2-yl)pyrrolidin-2-yl)methanol] here?
**A.** < 100 nM

**Q.** COc1cc(F)c(CC(=O)N2CCN(c3nc(Nc4cn(-c5ccccc5)cn4)c4ccsc4n3)CC2)c(F)c1 [Compound 45d, 2-(2,6-difluoro-4-methoxyphenyl)-1-(4-(4-((1-phenyl-1H-imidazol-4-yl)amino)thieno[2,3-d]pyrimidin-2-yl)piperazin-1-yl)ethanone] was tested. Which IC50 did it give?
**A.** 100 to 1000 nM

**Q.** Which IC50 does the source give for c1ccc([C@@H]2CCCN2c2nc(Nc3cn(C4CCCCC4)cn3)c3cccn3n2)cc1 [Compound 46a, (S)—N-(1-cyclohexyl-1H-imidazol-4-yl)-2-(2-phenylpyrrolidin-1-yl)pyrrolo[2,1-f][1,2,4]triazin-4-amine] here?
**A.** 100 to 1000 nM

**Q.** For CC(=O)c1cccc(-n2cnc(Nc3nc(N4CCC[C@H]4CO)nn4cccc34)c2)c1 [Compound 47c, (S)-1-(3-(4-((2-(2-(hydroxymethyl)pyrrolidin-1-yl)pyrrolo[2,1-f][1,2,4]triazin-4-yl)amino)-1H-imidazol-1-yl)phenyl)ethanone], which IC50 is on record?
**A.** < 100 nM

**Q.** With OC[C@@H]1CCCN1c1nc(Nc2cn(-c3ccc(O)cc3)cn2)c2cccn2n1 [Compound 48c, (S)-4-(4-((2-(2-(hydroxymethyl)pyrrolidin-1-yl)pyrrolo[2,1-f][1,2,4]triazin-4-yl)amino)-1H-imidazol-1-yl)phenol] as the compound, how does the IC50 read?
**A.** < 100 nM

**Q.** With OC[C@@H]1CCCN1c1nc(Nc2cn(-c3ccc(Cl)cc3)cn2)c2cccn2n1 [Compound 49c, (S)-(1-(4-((1-(4-chlorophenyl)-1H-imidazol-4-yl)amino)pyrrolo[2,1-f][1,2,4]triazin-2-yl)pyrrolidin-2-yl)methanol] as the compound, how does the IC50 read?
**A.** < 100 nM

**Q.** OC[C@@H]1CCCN1c1nc(Nc2cn(C3CCCC3)cn2)c2cccn2n1 [Compound 50c, (S)-(1-(4-((1-cyclopentyl-1H-imidazol-4-yl)amino)pyrrolo[2,1-f][1,2,4]triazin-2-yl)pyrrolidin-2-yl)methanol] was tested. Which IC50 did it give?
**A.** < 100 nM

**Q.** With COc1cc(F)c(CC(=O)N2CCN(c3nc(Nc4cn(C)cn4)c4cccn4n3)CC2)c(F)c1 [Compound 51a, 2-(2,6-difluoro-4-methoxyphenyl)-1-(4-(4-((1-methyl-1H-imidazol-4-yl)amino)pyrrolo[2,1-f][1,2,4]triazin-2-yl)piperazin-1-yl)ethanone] as the compound, how does the IC50 read?
**A.** 100 to 1000 nM

**Q.** For COc1cc(F)c(CC(=O)N2CCN(c3nc(Nc4cn(-c5ccccc5)cn4)c4cccn4n3)CC2)c(F)c1 [Compound 52a, 2-(2,6-difluoro-4-methoxyphenyl)-1-(4-(4-((1-phenyl-1H-imidazol-4-yl)amino)pyrrolo[2,1-f][1,2,4]triazin-2-yl)piperazin-1-yl)ethanone], which IC50 is on record?
**A.** 100 to 1000 nM

**Q.** With Cn1cnc(Nc2nc(N3CCN(C(=O)Cc4ccccc4)CC3)nn3cccc23)c1 [Compound 53b, 1-(4-(4-((1-methyl-1H-imidazol-4-yl)amino)pyrrolo[2,1-f][1,2,4]triazin-2-yl)piperazin-1-yl)-2-phenylethanone] as the compound, how does the IC50 read?
**A.** 100 to 1000 nM

**Q.** For CC(C)(C)OC(=O)N1CCN(c2nc(Nc3cn(-c4ccccc4)cn3)c3sccc3n2)CC1 [Compound 54a, tert-butyl 4-(4-((1-phenyl-1H-imidazol-4-yl)amino)thieno[3,2-d]pyrimidin-2-yl)piperazine-1-carboxylate], which IC50 is on record?
**A.** < 100 nM

**Q.** COc1ccc(-n2cnc(Nc3nc(N4CCC[C@H]4CO)nn4cccc34)c2)cc1 [Compound 55c, (S)-(1-(4-((1-(4-methoxyphenyl)-1H-imidazol-4-yl)amino)pyrrolo[2,1-f][1,2,4]triazin-2-yl)pyrrolidin-2-yl)methanol] was tested. Which IC50 did it give?
**A.** < 100 nM

**Q.** With COc1cccc(-n2cnc(Nc3nc(N4CCC[C@H]4CO)nn4cccc34)c2)c1 [Compound 56c, (S)-(1-(4-((1-(3-methoxyphenyl)-1H-imidazol-4-yl)amino)pyrrolo[2,1-f][1,2,4]triazin-2-yl)pyrrolidin-2-yl)methanol] as the compound, how does the IC50 read?
**A.** < 100 nM

**Q.** COc1cc(-n2cnc(Nc3nc(N4CCC[C@H]4CO)nn4cccc34)c2)cc(OC)c1OC [Compound 57c, (S)-(1-(4-((1-(3,4,5-trimethoxyphenyl)-1H-imidazol-4-yl)amino)pyrrolo[2,1-f][1,2,4]triazin-2-yl)pyrrolidin-2-yl)methanol] was tested. Which IC50 did it give?
**A.** < 100 nM

**Q.** Which IC50 does the source give for OC[C@@H]1CCCN1c1nc(Nc2cn(-c3ccc(F)cc3)cn2)c2sccc2n1 [Compound 58b, (S)-(1-(4-((1-(4-fluorophenyl)-1H-imidazol-4-yl)amino)thieno[3,2-d]pyrimidin-2-yl)pyrrolidin-2-yl)methanol] here?
**A.** < 100 nM

**Q.** N#CC1CC(n2cnc(Nc3nc(N4CCCC4c4ccccn4)nn4cccc34)c2)C1 (stereo not shown) [Compound 59c, 3-(4-((2-(2-(pyridin-2-yl)pyrrolidin-1-yl)pyrrolo[2,1-f][1,2,4]triazin-4-yl)amino)-1H-imidazol-1-yl)cyclobutanecarbonitrile] was tested. Which IC50 did it give?
**A.** 100 to 1000 nM

**Q.** How did the IC50 turn out when OC[C@@H]1CCCN1c1nc(Nc2cn(-c3ccc(F)cc3)cn2)c2ccsc2n1 [Compound 60b, (S)-(1-(4-((1-(4-fluorophenyl)-1H-imidazol-4-yl)amino)thieno[2,3-d]pyrimidin-2-yl)pyrrolidin-2-yl)methanol] was run?
**A.** < 100 nM

**Q.** CC(C)(C)CC(=O)N1CCN(c2nc(Nc3cn(-c4ccccc4)cn3)c3ccsc3n2)CC1 [Compound 61b, 3,3-dimethyl-1-(4-(4-((1-phenyl-1H-imidazol-4-yl)amino)thieno[2,3-d]pyrimidin-2-yl)piperazin-1-yl)butan-1-one] was tested. Which IC50 did it give?
**A.** < 100 nM

**Q.** For CCN(CCO)c1nc(Nc2cn(-c3ccccc3)cn2)c2ccsc2n1 [Compound 62b, 2-(ethyl(4-(1-phenyl-1H-imidazol-4-ylamino)thieno[2,3-d]pyrimidin-2-yl)amino)ethanol], which IC50 is on record?
**A.** 100 to 1000 nM

**Q.** With c1ccc([C@@H]2CCCN2c2nc(Nc3cn(C4CCC4)cn3)c3cccn3n2)cc1 [Compound 63a, (S)—N-(1-cyclobutyl-1H-imidazol-4-yl)-2-(2-phenylpyrrolidin-1-yl)pyrrolo[2,1-f][1,2,4]triazin-4-amine] as the compound, how does the IC50 read?
**A.** < 100 nM

**Q.** c1ccc([C@@H]2CCCN2c2nc(Nc3cn(C4CCC4)cn3)c3cccn3n2)nc1 [Compound 64a, (S)—N-(1-cyclobutyl-1H-imidazol-4-yl)-2-(2-(pyridin-2-yl)pyrrolidin-1-yl)pyrrolo[2,1-f][1,2,4]triazin-4-amine] was tested. Which IC50 did it give?
**A.** < 100 nM

**Q.** How did the IC50 turn out when OC[C@@H]1CCCN1c1nc(Nc2cn(-c3ccc4cc[nH]c4c3)cn2)c2cccn2n1 [Compound 65c, (S)-(1-(4-((1-(1H-indol-6-yl)-1H-imidazol-4-yl)amino)pyrrolo[2,1-f][1,2,4]triazin-2-yl)pyrrolidin-2-yl)methanol] was run?
**A.** 100 to 1000 nM

**Q.** Which IC50 does the source give for OC[C@@H]1CCCN1c1nc(Nc2cn(-c3ccccn3)cn2)c2cccn2n1 [Compound 66c, (S)-(1-(4-((1-(pyridin-2-yl)-1H-imidazol-4-yl)amino)pyrrolo[2,1-f][1,2,4]triazin-2-yl)pyrrolidin-2-yl)methanol] here?
**A.** < 100 nM

**Q.** OC[C@@H]1CCCN1c1nc(Nc2cn(-c3ccc4[nH]ccc4c3)cn2)c2cccn2n1 [Compound 67c, (S)-(1-(4-((1-(1H-indol-5-yl)-1H-imidazol-4-yl)amino)pyrrolo[2,1-f][1,2,4]triazin-2-yl)pyrrolidin-2-yl)methanol] was tested. Which IC50 did it give?
**A.** < 100 nM

**Q.** How did the IC50 turn out when N#CC1CC(n2cnc(Nc3nc(N4CCC[C@H]4CO)nn4cccc34)c2)C1 (stereo partly drawn) [Compound 68a, (S)-3-(4-((2-(2-(hydroxymethyl)pyrrolidin-1-yl)pyrrolo[2,1-f][1,2,4]triazin-4-yl)amino)-1H-imidazol-1-yl)cyclobutanecarbonitrile] was run?
**A.** < 100 nM

**Q.** How did the IC50 turn out when c1ccc(C2CCCN2c2nc(Nc3cn(C4CCCC4)cn3)c3cccn3n2)nc1 (stereo not shown) [Compound 69a, N-(1-cyclopentyl-1H-imidazol-4-yl)-2-(2-(pyridin-2-yl)pyrrolidin-1-yl)pyrrolo[2,1-f][1,2,4]triazin-4-amine] was run?
**A.** < 100 nM

**Q.** Which IC50 does the source give for OCc1cc2c(Nc3cn(-c4ccccc4)cn3)nc(N3CCC[C@H]3CO)nc2s1 [Compound 70f, (S)-(1-(6-(hydroxymethyl)-4-((1-phenyl-1H-imidazol-4-yl)amino)thieno[2,3-d]pyrimidin-2-yl)pyrrolidin-2-yl)methanol] here?
**A.** < 100 nM

**Q.** For OC[C@@H]1CCCN1c1nc(Nc2cn(-c3cc[nH]n3)cn2)c2cccn2n1 [Compound 71c, (S)-(1-(4-((1-(1H-pyrazol-3-yl)-1H-imidazol-4-yl)amino)pyrrolo[2,1-f][1,2,4]triazin-2-yl)pyrrolidin-2-yl)methanol], which IC50 is on record?
**A.** < 100 nM
